From patent publication US11945826B2, “Hydroxypyridoxazepines as NRF2 activators” (GLAXOSMITHKLINE INTELLECTUAL PROPERTY DEVELOPMENT LIMITED, priority 2019, dated 2024)

Tested on: murine TAC model
Assay: Mouse Transverse Aortic Constriction (TAC) Left Ventricular Pressure Overload Model
Type: in vivo, C57BLK/6J mice
Conditions: 10-week mouse TAC, Example 1 at 1, 3, 10 mg/kg/d, Example B at 100 mg/kg/d
Source text: Male C57BLK/6J mice (10-12 weeks old) were individually housed and acclimated to a standard powdered rodent diet for 1-3 days. Water was offered ad libitum throughout the study. Mice were initially anesthetized in a chamber using an 3% isoflurane with oxygen (1.0 L/min), and then maintained at 1.5% via nose cone (without intubation). A small incision (˜5 mm) was made just left of midline and just above the rib cage at the level of the suprasternal notch. The muscle tissue was retracted to expose the area above the pleural cavity. The lobes of the thymus were separated and retracted to expose the aortic arch. Fine surgical forceps with blunted tips were used to expose a region above and below the aorta. A micro blunt hook tied with 7-0 silk surgical suture was looped under the aorta and the suture pulled through. The suture was tied-off against a small piece of blunted 27 G needle and the needle was then removed creating the aortic constriction (a 60-70% constriction of the lumen). The incision was closed using 6-0 silk suture for the muscle layer, then the skin with Medbond. The sham procedure was identical without ligation of aorta. Depending on the individual study designs, drug administration began either on the day of surgery, or 1-2 weeks after surgery (detailed in figure legends) and continued until the end of study. Compounds were administered in the mouse chow unless otherwise noted in FIG. 12 legends. TAC study duration was either 6 weeks or 10 weeks in duration. All TAC study endpoints were collected at the end of study. Following heart dissections, samples were either snap frozen in liquid nitrogen and stored at −80° C. or placed in 10% neutral buffered formalin until analysis.
Echocardiography: For mouse TAC studies, echocardiography was performed on a Vevo 2100 high frequency imaging system. Animals were anesthetized with 2-3% isoflurane and sedation maintained with 1% isoflurane with animals on a heating pad. B-mode imaging of three cardiac cycles was used to assess ejection fraction (EF), end diastolic volume (EDV), end systolic volume (ESV), LV mass, and heart rate. ECG was used to measure heart rate during the echocardiography procedure.
NADPH dehydrogenase [quinone]-1 (NQO1) activity: Left ventricular (LV) tissue NQO1 activity was determined using an NQO1 assay kit per manufacturer's protocol (Abcam, Cambridge MA)
The KEAP1 blockers/Nrf2 activators, (R)-3-(1,4-dimethyl-1H-benzo[d][1,2,3]triazol-5-yl)-3-(3-(((R)-2-ethyl-7-hydroxy-2,3-dihydropyrido[2,3-f][1,4]oxazepin-4(5H)-yl)methyl)-4-methylphenyl)propanoic acid, hydrochloride, or a tautomer thereof (Example 1) (in dose-response) and (S)-3-(1,4-dimethyl-1H-benzo[d][1,2,3]triazol-5-yl)-3-(3-(((R)-2-ethyl-2,3-dihydropyrido[3,4-f][1,4]oxazepin-4(5H)-yl)methyl)-4-methylphenyl)-2,2-dimethylpropanoic acid (Example B) were evaluated in a 10-week mouse TAC model of severe hemodynamic stress.
FIG. 12 depicts the effect of the KEAP1-kelch domain blockers/Nrf2 activators (R)-3-(1,4-dimethyl-1H-benzo[d][1,2,3]triazol-5-yl)-3-(3-(((R)-2-ethyl-7-hydroxy-2,3-dihydropyrido[2,3-f][1,4]oxazepin-4(5H)-yl)methyl)-4-methylphenyl)propanoic acid, hydrochloride, or a tautomer thereof (Compound of Example 1) and (S)-3-(1,4-dimethyl-1H-benzo[d][1,2,3]triazol-5-yl)-3-(3-(((R)-2-ethyl-2,3-dihydropyrido[3,4-f][1,4]oxazepin-4(5H)-yl)methyl)-4-methylphenyl)-2,2-dimethylpropanoic acid (Compound B) on cardiac function, remodeling, and NQO1 enzyme activity in the murine 10-week TAC model. All compounds were dosed in chow beginning 2-weeks after TAC. […]

CC[C@@H]1CN(Cc2cc([C@@H](CC(=O)O)c3ccc4c(nnn4C)c3C)ccc2C)Cc2nc(O)ccc2O1 [Example 1, (R)-3-(1,4-dimethyl-1H-benzo[d][1,2,3]triazol-5-yl)-3-(3-(((R)-2-ethyl-7-hydroxy-2,3-dihydropyrido[2,3-f][1,4]oxazepin-4(5H)-yl)methyl)-4-methylphenyl)propanoic acid]
cardiac function as assessed by ejection fraction (daily in chow for eight weeks from 2 weeks after TAC): full normalization of cardiac function | NAD(P)H quinone oxidoreductase 1 (NQO1) in the LV (daily in chow for eight weeks): significant dose-related elevations | cardiac hypertrophy (left ventricular mass) (daily in chow for eight weeks): did not influence cardiac hypertrophy | unloading the heart (blood pressure) or heart rate (daily in chow for eight weeks): nor did the ejection fraction change occur by unloading the heart (i.e., lowering blood pressure) or increasing the heart rate
